One test has as its system osteoclasts. In words: bone slice assay: bone resorption by isolated osteoclasts (scanning electron microscopy). The test is classed as cell-based, neonatal rat. The following applies: isolated osteoclasts on bone slices. The protocol:
155, (1985), as well as in Endocrinology, Vol. 116, p. 234 (1985). In this assay, osteoclasts are mechanically disaggregated from neonatal rat long bones into Hepes-buffered medium 199 (available from Flow Laboratories of Irvine, […] in the United Kingdom). The suspension is agitated with a pipette and the larger fragments were allowed to settle for a period of 30 seconds. The cells are then added to two wells of a multiwell-dish containing bone slices, with each of said slices measuring 2.5 mm^2. After incubating at 37° C. for a period of 15 minutes, the aforesaid bone slices are then removed, washed in medium 199 and placed in individual wells of a 96-well plate (also available from Flow Laboratories). These latter bone slices are then incubated overnight in a total volume of […] of culture medium consisting of 10% newborn calf-serum (from Flow Laboratories) in Hanks-buffered MEM (also from Flow Laboratories) in the presence or absence of the test compound. Bone resorption is quantified by means of scanning electron microscopy. […] The number and size of the osteoclastic excavations, and the plan area of bone resorbed is recorded. Differences between groups are then analyzed by means of Student's t-Test.

For another test, the target named is T1, gastric H^+ /K^+ -ATPase (Sus scrofa, UniProt P19156).
T1 construct: preparing the microsomes from hog gastric mucosa; from tissue; host or cells: hog gastric mucosa (microsomes)
T1 sequence (P19156 2-1034 limits assumed): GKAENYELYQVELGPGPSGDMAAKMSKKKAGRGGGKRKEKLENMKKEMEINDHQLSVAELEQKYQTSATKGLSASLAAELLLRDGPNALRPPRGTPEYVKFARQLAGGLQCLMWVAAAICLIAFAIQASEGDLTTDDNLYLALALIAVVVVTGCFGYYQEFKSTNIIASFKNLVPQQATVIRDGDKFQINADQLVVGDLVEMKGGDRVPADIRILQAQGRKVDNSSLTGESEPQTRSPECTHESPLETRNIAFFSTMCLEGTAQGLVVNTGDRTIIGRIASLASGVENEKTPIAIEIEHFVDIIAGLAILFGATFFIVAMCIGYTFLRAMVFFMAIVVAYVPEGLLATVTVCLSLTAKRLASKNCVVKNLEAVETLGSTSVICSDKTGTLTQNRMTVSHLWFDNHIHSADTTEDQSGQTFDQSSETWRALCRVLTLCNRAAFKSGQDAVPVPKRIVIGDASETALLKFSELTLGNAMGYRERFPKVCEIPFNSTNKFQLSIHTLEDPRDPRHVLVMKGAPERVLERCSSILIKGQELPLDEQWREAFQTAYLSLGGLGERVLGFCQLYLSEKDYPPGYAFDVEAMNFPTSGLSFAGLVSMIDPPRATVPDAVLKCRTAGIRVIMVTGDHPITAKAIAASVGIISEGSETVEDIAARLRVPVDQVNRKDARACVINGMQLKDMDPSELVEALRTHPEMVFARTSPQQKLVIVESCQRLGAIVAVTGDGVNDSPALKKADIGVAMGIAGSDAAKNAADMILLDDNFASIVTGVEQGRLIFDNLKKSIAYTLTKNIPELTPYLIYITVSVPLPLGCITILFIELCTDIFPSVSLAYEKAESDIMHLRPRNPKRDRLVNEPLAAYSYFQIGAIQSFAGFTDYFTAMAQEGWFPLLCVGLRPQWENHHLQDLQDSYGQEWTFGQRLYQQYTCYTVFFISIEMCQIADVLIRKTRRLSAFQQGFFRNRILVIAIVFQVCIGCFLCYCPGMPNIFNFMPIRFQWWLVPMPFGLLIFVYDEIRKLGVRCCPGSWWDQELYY
T1 sequence (P18434 whole entry partner): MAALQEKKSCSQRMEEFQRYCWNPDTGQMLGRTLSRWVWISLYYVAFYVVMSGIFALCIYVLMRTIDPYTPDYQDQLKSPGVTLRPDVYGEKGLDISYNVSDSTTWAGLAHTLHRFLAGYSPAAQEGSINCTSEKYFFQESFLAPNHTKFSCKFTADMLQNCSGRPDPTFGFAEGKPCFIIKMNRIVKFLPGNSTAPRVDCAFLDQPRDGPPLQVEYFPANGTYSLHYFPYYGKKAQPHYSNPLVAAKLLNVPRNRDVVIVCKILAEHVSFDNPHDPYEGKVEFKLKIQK
Description: gastric H+/K+-ATPase inhibition in isolated porcine gastric microsomes (phosphate release). Type of test: biochemical. The protocol: The activity of the compounds of the present invention as anti-ulcer agents, useful in the treatment of gastric disease in mammals, such as peptic ulcers, etc., is assessed by their ability to inhibit gastric H^+ /K^+ -ATPase, using isolated porcine gastric microsomes and essentially employing a modification of the method first described by G. Saccomani et al., as initially reported in Biochimica Biophysica Acta, Vol. 465, p. 311 (1977). The modification involves preparing the microsomes from hog gastric mucosa according to the procedure first described by L-A. Yeh et al., in Membrane Biochemistry, Vol. 9, p. 129 (1991). The H^+ /K^+ -ATPase enzyme activity is assayed according to the procedure described by N. Chang et al., in Biochimica Biophysica Acta, Vol. 464, p. 313 (1977), using a medium containing […], 3 mM ATP, 50 mM Tris-HCl (pH 7.4) and 2 mM MgCl2 with or without 10 mM KCl in a final volume of 1.1 mL. The incubation step is initially carried out at 37° C. for a period of 15 minutes. The reaction is then terminated by the addition of 100 μL of 50% TCA (trichloroacetic acid). Phosphate release is next measured spectrophotometrically in the manner described by C. H. Fiske et al., in the Journal of Biological Chemistry, Vol. 66, p. 375 (1925).

Broadly, the inhibition is the share of the control response that was lost under treatment. A higher inhibition goes with a strong effect. On to `CCOC(=O)CCC(=O)c1cnc2c(OC)cccc2c1Nc1ccccc1C` [Example 1, 3-(3-ethoxycarbonylpropionyl)-8-methoxy-4-(2-methylphenylamino)quinoline], for which the minimal effective concentration with osteoclasts (Rattus norvegicus, Osteoclast, overnight incubation, dose-responsive, read-out: concentration level at which statistically significant inhibition of bone resorption occurs) came out at 0.1 µM. Moreover, the “inhibition of lacunae formation and bone resorption (in words)” value with osteoclasts was “potent inhibitor of lacunae formation and of resultant bone resorption”. The compound further came in with an inhibition at 10 µM at gastric H^+ /K^+ -ATPase (at 10 μM) of roughly 50%. In addition, the “nature of H+/K+-ATPase inhibition” value on gastric H^+ /K^+ -ATPase (porcine gastric microsomes) was “both reversibly and specifically”. The IC50 at gastric H^+ /K^+ -ATPase (porcine gastric microsomes, 37° C., 15 minutes, pH 7.4, read-out: IC50 value range, inhibition of gastric H+/K+-ATPase) lay in the range of 10 to 20 µM.

Values taken from patent US5362743A, “Aminoquinoline derivatives” (Pfizer Inc., priority 1993, dated 1994).
